According to patent US20100069366A1, “ANTIBACTERIAL QUINOLINE DERIVATIVES” (JANSSEN-CILAG, priority 2006, published 2010):
In brackets after ≈: the same amount, converted by molar mass. Like-named read-outs stand apart in the source and are kept apart here.

How the values were obtained:
Assay type in all cases: cell-based
[1] = tested on: Streptococcus pneumoniae (ATCC6305); assay: Microtitre plate assay, IC90 determination, SPN 6305; settings: 90% inhibitory concentration for bacterial growth, resazurin
Description: (§1) The bacteria used in this study were grown overnight in flasks containing 100 ml Mueller-Hinton Broth (Becton Dickinson—cat. no. 275730) in sterile de-ionized water, with shaking, at 37° C. Stocks (0.5 ml/tube) were stored at −70° C. until use. Bacteria titrations were performed in microtiter plates to detect the TCID50, in which the TCID50 represents the dilution that gives rise to bacterial growth in 50% of inoculated cultures.
(§2) In general, an inoculum level of approximately 100 TCID50 was used for susceptibility testing.
(§3) Flat-bottom, sterile 96-well plastic microtiter plates were filled with 180 μl of sterile deionized water, supplemented with 0.25% BSA. Subsequently, stock solutions (7.8× final test concentration) of compounds were added in 45 μl volumes in column 2 Serial five-fold dilutions (45 μl in […]) were made directly in the microtiter plates from column 2 to reach column 11. Untreated control samples with (column 1) and without (column 12) inoculum were included in each microtiter plate. Depending on the bacteria type, approximately 10 to 60 CFU per well of bacteria inoculum (100 TCID50), in a volume of 100 μl in 2.8× Mueller-Hinton broth medium, was added to the rows A to H, except column 12. The same volume of broth medium without inoculum was added to column 12 in row A to H. The cultures were incubated at 37° C. for 24 hours under a normal atmosphere (incubator with open air valve and continuous ventilation). At the end of incubation, one day after inoculation, the bacterial growth was quantitated fluorometrically. Therefore resazurin (0.6 mg/ml) was added in a volume of 20 μl to all wells 3 hours after inoculation, and the plates were re-incubated overnight. A change in colour from blue to pink indicated the growth of bacteria. The fluorescence was read in a computer-controlled fluorometer (Cytofluor Biosearch) at an excitation wavelength of 530 nm and an emission wavelength of 590 nm. The % growth inhibition achieved by the compounds was calculated according to standard methods.

M. Smegmatis ATCC607 = assay: In-vitro anti-bacterial activity against strain M. smegmatis ATCC607; settings: for IC90: Mycolicibacterium smegmatis
Description: Flat-bottom, sterile 96-well plastic microtiter plates were filled with 180 μl of sterile deionized water, supplemented with 0.25% BSA. Subsequently, stock solutions (7.8× final test concentration) of compounds were added in 45 μl volumes to a series of duplicate wells in column 2 so as to allow evaluation of their effects on bacterial growth. Serial five-fold dilutions (45 μl in 180 μl) were made directly in the microtiter plates from column 2 to 11 using a customised robot system (Zymark Corp., Hopkinton, Mass.). Pipette tips were changed after every 3 dilutions to minimize pipetting errors with high hydrophobic compounds. Untreated control samples with (column 1) and without (column 12) inoculum were included in each microtiter plate. Approximately 250 CFU per well of bacteria inoculum, in a volume of 100 μl in 2.8× Mueller-Hinton broth medium, was added to the rows A to H, except column 12. The same volume of broth medium without inoculum was added to column 12 in row A to H. The cultures were incubated at 37° C. for 48 hours in a humidified 5% CO2 atmosphere (incubator with open air valve and continuous ventilation). At the end of incubation, two days after inoculation, the bacterial growth was quantitated fluorometrically. Therefore Alamar Blue (10×) was added to all wells in a volume of 20 μl and plates were incubated for another 2 hours at […]
The fluorescence was read in a computer-controlled fluorometer (Cytofluor, Biosearch) at an excitation wavelength of 530 nm and an emission wavelength of 590 nm (gain 30).

[2] = tested on: Staphylococcus aureus (ATCC29213); assay: Microtitre plate assay, IC90 determination, STA 29213
Description: as §1, §2, §3

[3] = Streptococcus pneumoniae ATCC6305
[4] = 90% inhibitory concentration for bacterial growth, 48 hours, Alamar Blue fluorescence
[5] = Staphylococcus aureus ATCC29213, 90% inhibitory concentration for bacterial growth, resazurin
[6] = Streptococcus pneumoniae, ATCC6305, read-out: IC90 (μg/ml) SPN 6305, Streptococcus pneumoniae ATCC6305
[7] = ATCC607, 48 h, read-out: M. smegmatis IC90 (μg/ml), 90% inhibitory concentration for bacterial growth, Alamar Blue fluorescence
[8] = Staphylococcus aureus, ATCC29213, read-out: IC90 (μg/ml) STA 29213
[9] = Streptococcus pneumoniae ATCC6305, read-out: IC90 (μg/ml) SPN 6305
[10] = ATCC607, 90% inhibitory concentration for bacterial growth, 48 hours, Alamar Blue fluorescence, read-out: M. smegmatis IC90
[11] = Staphylococcus aureus ATCC29213, 90% inhibitory concentration for bacterial growth, resazurin, read-out: IC90 (μg/ml) STA 29213

Structure (SMILES): COc1nc2ccc(-c3ccccc3)cc2cc1C(=C(CCn1ccnc1)c1ccccc1)c1ccccc1 [Compound 46]
- IC90 (μg/ml) SPN 6305 [1, 3]: 8.05 µg/mL (≈ 15.9 µM)
- M. smegmatis IC90 (M. Smegmatis ATCC607; [4]): 1.61 µg/mL
- IC90 (μg/ml) STA 29213 [2, 5]: 9.03 µg/mL (≈ 17.8 µM)

Structure (SMILES): CCN(CC)CC=C(c1cccc2ccccc12)C(c1ccccc1)c1cc2cc(Br)ccc2nc1OC (racemic) [Compound 28]
- IC90 (μg/ml) SPN 6305 [1, 3]: 2.01 µg/mL (≈ 3.55 µM)
- M. smegmatis IC90 (M. Smegmatis ATCC607; [4]): 1.79 µg/mL
- IC90 (μg/ml) STA 29213 [2, 5]: 8.96 µg/mL (≈ 15.8 µM)

Structure (SMILES): COc1nc2ccc(Br)cc2cc1C(=C(CCn1cncn1)c1ccccc1)c1ccccc1 (single isomer, unassigned) [Compound 42]
- M. smegmatis IC90 (M. Smegmatis ATCC607; [4]): 22.84 µg/mL

Structure (SMILES): COc1nc2ccc(-c3ccco3)cc2cc1C(/C(=C/CN(C)C)c1cccc2ccccc12)c1ccccc1 (stereo not drawn) [Compound 21]
- IC90 [1, 6]: 23.4 µg/mL (≈ 44.7 µM)
- IC90 (M. Smegmatis ATCC607; [7]): 14.8 µg/mL (≈ 28.2 µM)
- IC90 [2, 8]: 41.7 µg/mL (≈ 79.4 µM)

Structure (SMILES): Clc1ccc(/C(CCCCN2CCCCC2)=C(/c2ccccc2)c2cnc3ccccc3c2)cc1 [Compound 50]
- IC90 [1, 6]: 9.6 µg/mL (≈ 20 µM)
- IC90 (M. Smegmatis ATCC607; [7]): 1.92 µg/mL (≈ 3.99 µM)

Structure (SMILES): COc1nc2ccc(Br)cc2cc1C(/C(=C/Cc1ccccc1)CCN(C)C)c1ccccc1 (stereo not drawn) [Compound 7]
- IC90 [1, 9]: 2.05 µg/mL (≈ 3.98 µM)
- IC90 (M. Smegmatis ATCC607; [10]): 1.63 µg/mL (≈ 3.16 µM)
- IC90 [2, 11]: 1.63 µg/mL (≈ 3.16 µM)

Structure (SMILES): COc1nc2ccc(Br)cc2cc1C(=C(CCN1CCOCC1)c1ccccc1)c1ccccc1 (mixture of isomers) [Compound 43]
- IC90 (μg/ml) SPN 6305 [1, 3]: 8.39 µg/mL
- M. smegmatis IC90 (M. Smegmatis ATCC607; [4]): 4.21 µg/mL
- IC90 (μg/ml) STA 29213 [2, 5]: 52.95 µg/mL

Structure (SMILES): CSc1nc2ccc(Br)cc2cc1/C(=C(/CCN(C)C)c1ccccc1)c1ccccc1 [Compound 2]
- IC90 [1, 6]: 1.59 µg/mL (≈ 3.16 µM)
- IC90 (M. Smegmatis ATCC607; [7]): 1.59 µg/mL (≈ 3.16 µM)
- IC90 [2, 8]: 7.98 µg/mL (≈ 15.8 µM)

Structure (SMILES): COc1nc2ccc(Br)cc2cc1C(C(=CCN1CCN(C)CC1)c1ccccc1)c1ccccc1 (racemic) [Compound 48]
- IC90 (μg/ml) SPN 6305 [1, 3]: 2.72 µg/mL (≈ 5.01 µM)
- M. smegmatis IC90 (M. Smegmatis ATCC607; [4]): 1.72 µg/mL
- IC90 (μg/ml) STA 29213 [2, 5]: 10.82 µg/mL (≈ 19.9 µM)

Structure (SMILES): CSc1nc2ccc(-c3ccccc3)cc2cc1C(/C(=C/CN(C)C)c1ccccc1)c1ccccc1 (stereo not drawn) [Compound 20]
- IC90 [1, 6]: 1.41 µg/mL (≈ 2.82 µM)
- IC90 (M. Smegmatis ATCC607; [7]): 1.41 µg/mL (≈ 2.82 µM)
- IC90 [2, 8]: 1.58 µg/mL (≈ 3.16 µM)

Structure (SMILES): COc1nc2ccc(F)cc2cc1C(C(=CCN(C)C)c1ccccc1)c1ccccc1 (racemic) [Compound 24]
- IC90 (μg/ml) SPN 6305 [1, 3]: 1.51 µg/mL (≈ 3.54 µM)
- M. smegmatis IC90 (M. Smegmatis ATCC607; [4]): 5.37 µg/mL
- IC90 (μg/ml) STA 29213 [2, 5]: 33.88 µg/mL (≈ 79.4 µM)

Structure (SMILES): COc1ccc2nc(OC)c(C(C(=CCN(C)C)c3ccccc3)c3ccccc3)cc2c1 (racemic) [Compound 31]
- IC90 (μg/ml) SPN 6305 [1, 3]: 7.8 µg/mL (≈ 17.8 µM)
- M. smegmatis IC90 (M. Smegmatis ATCC607; [4]): 6.95 µg/mL
- IC90 (μg/ml) STA 29213 [2, 5]: 39.09 µg/mL (≈ 89.1 µM)

Structure (SMILES): COc1nc2ccc(F)cc2cc1C(=C(CCN(C)C)c1ccccc1)c1ccccc1 (single isomer, unassigned) [Compound 39]
- IC90 (μg/ml) SPN 6305 [1, 3]: 8.51 µg/mL (≈ 20 µM)
- M. smegmatis IC90 (M. Smegmatis ATCC607; [4]): 16.98 µg/mL
- IC90 (μg/ml) STA 29213 [2, 5]: 33.88 µg/mL (≈ 79.4 µM)

Structure (SMILES): COc1nc2ccc(Br)cc2cc1C(=C(CCn1ccnc1)c1ccccc1)c1ccccc1 (single isomer, unassigned) [Compound 5]
- IC90 (μg/ml) SPN 6305 [1, 3]: 36.14 µg/mL (≈ 70.8 µM)
- M. smegmatis IC90 (M. Smegmatis ATCC607; [4]): 5.1 µg/mL
- IC90 (μg/ml) STA 29213 [2, 5]: 36.14 µg/mL (≈ 70.8 µM)

Structure (SMILES): COc1ccc(/C(CCCCN2CCCCC2)=C(/c2ccc(C#N)cc2)c2cnc3ccccc3c2)cc1 [Compound 56]
- IC90 [1, 9]: 12.6 µg/mL (≈ 25.1 µM)
- IC90 (M. Smegmatis ATCC607; [10]): 7.95 µg/mL (≈ 15.8 µM)

Structure (SMILES): COc1nc2ccc(Br)cc2cc1/C(=C(\C)CCN(C)C)c1ccccc1 [Compound 15]
- IC90 [1, 9]: 6.74 µg/mL (≈ 15.8 µM)
- IC90 (M. Smegmatis ATCC607; [10]): 1.35 µg/mL (≈ 3.17 µM)
- IC90 [2, 11]: 33.8 µg/mL (≈ 79.4 µM)

Structure (SMILES): COc1ccc(/C(CCCCN2CCCCC2)=C(/c2ccc(OC)cc2)c2cnc3ccccc3c2)cc1 [Compound 59]
- IC90 [1, 9]: 11.3 µg/mL (≈ 22.4 µM)
- IC90 (M. Smegmatis ATCC607; [10]): 8.03 µg/mL (≈ 15.8 µM)

Structure (SMILES): COc1nc2ccc(Br)cc2cc1C(/C(=C\CCCN1CCCN(C)CC1)c1ccc2ccccc2c1)c1ccccc1 (stereo not drawn) [Compound 62]
- IC90 (M. Smegmatis ATCC607; [10]): 8.97 µg/mL (≈ 14.1 µM)
- IC90 [2, 11]: 22.5 µg/mL (≈ 35.5 µM)
